In this assay the target is T1, hNET (Homo sapiens, UniProt P23975).
T1 construct: expressed in transfected cells
As to the kind of experiment: Norepinephrine (NE) uptake assay in MDCK-Net6 cells stably transfected with human hNET. Format: cell-based. Conditions: [3H]NE uptake; for inhibition at 1 µM: MDCK-Net6, 1 μM test compound; for pEC50: test range 1 to 10,000 nM. As to the method:
MDCK-Net6 cells, stably transfected with human hNET (Pacholczyk, T., R. D. Blakely, and S. G. Amara, Nature, 1991, 350(6316): p. 350-4) were cultured in growth medium containing high glucose DMEM (Gibco, Cat. No. 11995), 10% FBS (dialyzed, heat-inactivated, US Bio-Technologies, Lot FBD1129HI) and 500 μg/ml G418 (Gibco, Cat. No. 10131). Cells were plated at 300,000/T75 flask and cells were split twice weekly. The JAR cell line (human placental choriocarcinoma) was purchased from ATCC (Cat. No. HTB-144). The cells were cultured in growth medium containing RPMI 1640 (Gibco, Cat. No. 72400), 10% FBS (Irvine, Cat. No. 3000), 1% sodium pyruvate (Gibco, Cat. No. 1136) and 0.25% glucose. Cells were plated at 250,000 cells/T75 flask and split twice weekly. For all assays, cells were plated in Wallac 96-well sterile plates (PerkinElmer, Cat. No. 3983498).
Norepinephrine (NE) Uptake Assay
On day 1, cells were plated at 3,000 cells/well in growth medium and maintained in a cell incubator (37° C., 5% CO2). On day 2, growth medium was replaced with 200 μl of assay buffer (25 mM HEPES; 120 mM NaCl; 5 mM KCl; 2.5 mM CaCl2; 1.2 mM MgSO4; 2 mg/ml glucose (pH 7.4, 37° C.)) containing 0.2 mg/ml ascorbic acid and 10 μM pargyline. Plates containing cells with […] of assay buffer were equilibrated for 10 minutes at 37° C. prior to addition of compounds. A stock solution of desipramine was prepared in DMSO (10 mM) and delivered to triplicate wells containing cells for a final test concentration of 1 μM. Data from these wells were used to define non-specific NE uptake (minimum NE uptake). Test compounds were prepared in DMSO (10 mM) and diluted in assay buffer according to test range (1 to 10,000 nM). Twenty-five microliters of assay buffer (maximum NE uptake) or test compound were added directly to triplicate wells containing cells in 200 μl of assay buffer. The cells in assay buffer with test compounds were incubated for 20 minutes at 37° C. To initiate the NE uptake, [^3H]NE diluted in assay buffer (120 nM final assay concentration) was delivered in 25 μl aliquots to each well and the plates were incubated for 5 minutes (37° C.). The reaction was terminated by decanting the supernatant from the plate. The plates containing cells were washed twice with 200 μl assay buffer (37° C.) to remove free radioligand. The plates were then inverted, left to dry for 2 minutes, then reinverted and air-dried for an additional 10 minutes. The cells were lysed in 25 μl of 0.25 N NaOH solution (4° C.), placed on a shake table and vigorously shaken for 5 minutes. After cell lysis, 75 μl of scintillation cocktail was added to each well and the plates were sealed with film tape. The plates were returned to the shake table and vigorously shaken for a minimum of 10 minutes to ensure adequate partitioning of organic and aqueous solutions. The plates were counted in a Wallac Microbeta counter (PerkinElmer) to collect the raw cpm data.
For each experiment, a data stream of cpm values collected from the Wallac Microbeta counter was downloaded to a Microsoft Excel statistical application program. Calculations of EC50 values were made using the transformed-both-sides logistic dose response program written by Wyeth Biometrics Department. The statistical program uses mean cpm values from wells representing maximum binding or uptake (assay buffer) and mean cpm values from wells representing minimum binding or uptake ((1 μM desipramine (hNET) or 1 μM paroxetine (hSERT)). Estimation of the EC50 value was completed on a log scale and the line was fit between the maximum and minimum binding or uptake values. All graphic data representation was generated by normalizing each data point to a mean percent based on the maximum and minimum binding or uptake values. The EC50 values reported from multiple experiments were calculated by pooling the raw data from each experiment and analyzing the pooled data as one experiment.

SMILES strings stand for the structures. pEC50: −log10 of the molar value. Counter-ions that a name gives are not always drawn.

T1 sequence (P23975 whole entry): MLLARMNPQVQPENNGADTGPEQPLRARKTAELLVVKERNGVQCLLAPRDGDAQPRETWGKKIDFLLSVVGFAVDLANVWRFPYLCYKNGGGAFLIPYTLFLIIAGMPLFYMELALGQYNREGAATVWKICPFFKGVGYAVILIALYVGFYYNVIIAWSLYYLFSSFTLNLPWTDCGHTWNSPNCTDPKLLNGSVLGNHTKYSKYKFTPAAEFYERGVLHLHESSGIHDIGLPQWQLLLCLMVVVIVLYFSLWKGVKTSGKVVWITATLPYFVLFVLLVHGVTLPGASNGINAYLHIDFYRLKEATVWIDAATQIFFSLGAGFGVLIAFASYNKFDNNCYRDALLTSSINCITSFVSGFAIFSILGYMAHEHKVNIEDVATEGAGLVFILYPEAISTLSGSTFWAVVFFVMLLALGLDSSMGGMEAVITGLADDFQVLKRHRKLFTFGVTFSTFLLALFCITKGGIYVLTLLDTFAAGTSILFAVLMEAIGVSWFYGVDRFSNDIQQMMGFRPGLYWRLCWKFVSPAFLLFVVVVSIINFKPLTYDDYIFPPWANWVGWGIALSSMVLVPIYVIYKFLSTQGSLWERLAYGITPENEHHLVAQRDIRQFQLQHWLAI

What is called inhibition is the share of the control response that was lost under treatment. Low readings indicate a response near the control, high ones a response far below the control. The molecule `CN(C)[C@H]1CCN(CC(c2cccc(Cl)c2)C2(O)CCCCC2)C1` (stereo partly drawn) [Example 199, 1-{1-(3-chlorophenyl)-2-[(3S)-3-(dimethylamino)pyrrolidin-1-yl]ethyl}cyclohexanol dihydrochloride] showed an inhibition at 1 µM of 80.7%.

Regarding `CC(C)(O)C(CN1CCC(N)CC1)c1cccc(Cl)c1` (stereo not drawn) [Example 273, 4-(4-aminopiperidin-1-yl)-3-(3-chlorophenyl)-2-methylbutan-2-ol dihydrochloride], at 1 µM the inhibition was 79%.

Usually pEC50 stands for the negative decadic logarithm of the EC50, by convention in mol/L. `OC1(C(CN2CCC(N3CCCCC3)CC2)c2cccc(C(F)(F)F)c2)CCCCC1` (stereo not drawn) [Example 20, 1-{2-(1,4′-bipiperidin-1′-yl)-1-[3-(trifluoromethyl)phenyl]ethyl}cyclohexanol dihydrochloride] showed an inhibition at 1 µM of 88% and a pEC50 of 6.59.

Molecule `CNC1CCN(C[C@H](c2cccc(OC(F)(F)F)c2)C2(O)CCCCC2)CC1` [Example 359, 1-{(1S)-2-[4-(methylamino)piperidin-1-yl]-1-[3-(trifluoromethoxy)phenyl]ethyl}cyclohexanol dihydrochloride] gave an inhibition at 1 µM of 86% and a pEC50 of 6.54.

`N[C@@H]1CCN(CC(c2cccc3ccccc23)C2(O)CCCCC2)C1` (stereo partly drawn) [Example 377, 1-[2-[(3R)-3-aminopyrrolidin-1-yl]-1-(1-naphthyl)ethyl]cyclohexanol dihydrochloride] gave an inhibition at 30 µM (MDCK-Net6, 30 μM test compound (stated in cell)) of 82%.

`NC1CCN(CC(c2ccc(OCc3ccc4ccccc4c3)c(Cl)c2)C2(O)CCCCC2)CC1` (stereo not drawn) [Example 430, 1-{2-(4-aminopiperidin-1-yl)-1-[3-chloro-4-(2-naphthylmethoxy)phenyl]ethyl}cyclohexanol dihydrochloride] showed an inhibition at 1 µM of 42%.

Consider `CN(C)C1CCN(CC(c2cccc(Br)c2)C2(O)CCCCC2)CC1` (stereo not drawn) [Example 319, 1-{1-(3-bromophenyl)-2-[4-(dimethylamino)piperidin-1-yl]ethyl}cyclohexanol dihydrochloride], for which 1 µM produced 95.4% inhibition.

In turn, `COc1ccc2cc([C@H](CN3CCC(N4CCCCC4)CC3)C3(O)CCCCC3)ccc2c1` (single isomer, unassigned) [Example 354, dihydrochloride] gave an inhibition at 1 µM of 82% and a pEC50 of 6.40.

In turn, `CN(C)[C@@H]1CCCN(CC(c2ccc(OCc3ccccc3)c(Cl)c2)C2(O)CCCCC2)C1` (stereo partly drawn) [Example 194, 1-{1-[4-(benzyloxy)-3-chlorophenyl]-2-[(3R)-3-(dimethylamino)piperidin-1-yl]ethyl}cyclohexanol dihydrochloride] displayed an inhibition at 1 µM of 81.1%.

As for `OC1(C(CN2CCC(N3CCCC3)CC2)c2cccc(Oc3ccccc3)c2)CCCCC1` (stereo not drawn) [Example 316, 1-[1-(3-phenoxyphenyl)-2-(4-pyrrolidin-1-ylpiperidin-1-yl)ethyl]cyclohexanol dihydrochloride], the inhibition at 1 µM was 67.5%.

On to `NC1CCN(CC(c2cccc(Oc3ccccc3)c2)C2(O)CCCCC2)CC1` (stereo not drawn) [Example 315, 1-[2-(4-aminopiperidin-1-yl)-1-(3-phenoxyphenyl)ethyl]cyclohexanol dihydrochloride], for which the inhibition at 1 µM stood at 75.2%.

Consider `NC1CCN(CC(c2cccc(Br)c2)C2(O)CCCCC2)CC1` (stereo not drawn) [Example 18, 1-[2-(4-aminopiperidin-1-yl)-1-(3-bromophenyl)ethyl]cyclohexanol dihydrochloride], for which the inhibition at 1 µM came to 88% and the pEC50 is 6.70.

`CN(C)C1CCN(CC(c2ccc3ccccc3c2)C2(O)CCCCC2)CC1` (stereo not drawn) [Example 317, 1-[2-[4-(dimethylamino)piperidin-1-yl]-1-(2-naphthyl)ethyl]cyclohexanol dihydrochloride] came in with an inhibition at 1 µM of 21.2%.

The molecule `N[C@@H]1CCN(CC(c2ccc(OCc3ccccc3)c(Cl)c2)C2(O)CCCCC2)C1` (stereo partly drawn) [Example 383, 1-{2-[(3R)-3-aminopyrrolidin-1-yl]-1-[4-(benzyloxy)-3-chlorophenyl]ethyl}cyclohexanol dihydrochloride] showed an inhibition at 1 µM of 90%.

The molecule `COc1cc(C(CN2CCC(N)CC2)C2(O)CCCCC2)ccc1OCc1ccccc1` (stereo not drawn) [Example 450, 1-{2-(4-aminopiperidin-1-yl)-1-[4-(benzyloxy)-3-methoxyphenyl]ethyl}cyclohexanol dihydrochloride] returned an inhibition at 1 µM of 79%.

Molecule `OC1CCN(CC(c2cccc(OC(F)(F)F)c2)C2(O)CCCCC2)CC1` (stereo not drawn) [Example 240, 1-{2-(1-hydroxycyclohexyl)-2-[3-(trifluoromethoxy)phenyl]ethyl}piperidin-4-ol hydrochloride] displayed an inhibition at 1 µM of 4.4%.

Molecule `COc1ccc(C(CN2CCC(N3CCCCC3)CC2)C2(O)CCCCC2)cc1Cl` (stereo not drawn) [Example 458, 1-[2-(1,4′-bipiperidin-1′-yl)-1-(3-chloro-4-methoxyphenyl)ethyl]cyclohexanol dihydrochloride] gave an inhibition at 1 µM of 79%.

As for `CCCC(O)(CCC)C(CN1CCC(N)CC1)c1cccc(Cl)c1` (stereo not drawn) [Example 282, 4-[2-(4-aminopiperidin-1-yl)-1-(3-chlorophenyl)ethyl]heptan-4-ol dihydrochloride], where the note is “MDCK-Net6, 10 μM test compound (stated in cell)”, 10 µM produced 4.1% inhibition.

The molecule `OC1(C(CN2CCC(N3CCCCC3)CC2)c2ccc3ccccc3c2)CCCCC1` (stereo not drawn) [Example 22, 1-[2-(1,4′-bipiperidin-1′-yl)-1-(2-naphthyl)ethyl]cyclohexanol dihydrochloride] showed an inhibition at 1 µM of 85% and a pEC50 of 6.80.

The molecule `N[C@H]1CCCN(CC(c2cccc(OC(F)(F)F)c2)C2(O)CCCCC2)C1` (stereo partly drawn) [Example 190, 1-{2-[(3S)-3-aminopiperidin-1-yl]-1-[3-(trifluoromethoxy)phenyl]ethyl}cyclohexanol dihydrochloride] came in with an inhibition at 1 µM of 49.9%.

With `OC1(C(CN2CCC(N3CCCC3)CC2)c2cccc(Cl)c2)CCCCC1` (stereo not drawn) [Example 3, 1-[1-(3-chlorophenyl)-2-(4-pyrrolidin-1-ylpiperidin-1-yl)ethyl]cyclohexanol dihydrochloride], the inhibition at 1 µM came out at 100% and the negative-log EC50 (pEC50) was 7.28.

Molecule `CN[C@H]1CCN(CC(c2cccc(Cl)c2)C2(O)CCCCC2)C1` (stereo partly drawn) [Example 198, 1-1-{1-(3-chlorophenyl)-2-[(3S)-3-(methylamino)pyrrolidin-1-yl]ethyl}cyclohexanol dihydrochloride] showed an inhibition at 1 µM of 77.8%.

On to `CN(C)C1CCN(CC(c2ccc(OCc3ccccc3)c(Cl)c2)C2(O)CCCCC2)CC1` (stereo not drawn) [Example 429, 1-{1-[4-(benzyloxy)-3-chlorophenyl]-2-[4-(dimethylamino)piperidin-1-yl]ethyl}cyclohexanol], for which the inhibition at 1 µM came to 96% and the pEC50 was 6.74.

Molecule `CN(C)[C@H]1CCCN(CC(c2ccc(OCc3ccccc3)c(Cl)c2)C2(O)CCCCC2)C1` (stereo partly drawn) [Example 197, 1-{1-[4-(benzyloxy)-3-chlorophenyl]-2-[(3S)-3-(dimethylamino)piperidin-1-yl]ethyl}cyclohexanol dihydrochloride] displayed an inhibition at 1 µM of 76%.

As to `CN(C)C1CCN(CC(c2cccc(Cl)c2)C2CCCCC2)CC1` (stereo not drawn) [Example 233, 1-[2-(3-chlorophenyl)-2-cyclohexylethyl]-N,N-dimethylpiperidin-4-amine dihydrochloride], the inhibition at 1 µM stood at 91.1%.

`CN(C)[C@@H]1CCN(CC(c2cccc(OC(F)(F)F)c2)C2(O)CCCCC2)C1` (stereo partly drawn) [Example 219, 1-{2-[(3R)-3-(dimethylamino)pyrrolidin-1-yl]-1-[3-(trifluoromethoxy)phenyl]ethyl}cyclohexanol dihydrochloride]: testing at 1 µM gave an inhibition of 53.1%.

(Values after patent US7550485B2, “Substituted N-heterocycle derivatives and methods of their use” (Wyeth, priority 2003, dated 2009).)
